In patent publication US20240041042A1, “1-(PYRIDYL)-5-AZINYLPYRAZOLE DERIVATIVES, AND THEIR USE FOR CONTROL OF UNDESIRED PLANT GROWTH” (Bayer Aktiengesellschaft, priority 2020, published 2024):

Tests used:
Type in all cases: in vivo
[1] = tested on: Viola tricolor (VIOTR); assay: Pre-emergence herbicidal action against VIOTR
How it was run: (§1)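 Pre-emergence soil-surface spray of compound, formulated as wettable powder or emulsion concentrate, in aqueous suspension or emulsion with 0.5% additive (600 l/ha; rate 320 g/ha or less). Activity rated visually after roughly 3 weeks in the greenhouse as a percentage of untreated controls, 0% meaning no difference.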

[2] = tested on: Echinochloa crus-galli (ECHCG); assay: Pre-emergence herbicidal action against ECHCG
How it was run: as §1

[3] = tested on: Pharbitis purpurea (PHBPU); assay: Post-emergence herbicidal action against PHBPU
How it was run: (§2)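 Greenhouse plants sprayed at the one-leaf stage, 2–3 weeks after sowing, with WP or EC formulations plus 0.5% additive at 600 l/ha water. Activity rated visually after about 3 weeks versus untreated controls (100% = dead, 0% = like control), at 320 g/ha or lower.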

[4] = tested on: Setaria viridis (SETVI); assay: Post-emergence herbicidal action against SETVI
How it was run: as §2

[5] = tested on: Oryza sativa (ORYSA); conditions: crop plant compatibility, 80 g/ha, effect in comparison to untreated controls
How it was run: (§3)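 Visual rating (% effect vs. untreated plants; 100% = plant death) made about 3 weeks after treatment. Plants had been sprayed at one-leaf stage, 2–3 weeks post-sowing, with aqueous WP/EC preparations containing 0.5% additive, 600 l/ha water volume; a, b, c mark dose levels.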

[6] = tested on: Abutilon theophrasti (ABUTH); assay: Post-emergence herbicidal action against ABUTH; conditions: visual rating about 3 weeks after treatment vs untreated controls (100% = plants have died, 0% = like control plants)
How it was run: as §2

[7] = tested on: Amaranthus retroflexus (AMARE); assay: Pre-emergence herbicidal action against AMARE; conditions: visual scoring after about 3 weeks vs untreated controls
How it was run: as §1

[8] = tested on: Polygonum convolvulus (POLCO); assay: Post-emergence herbicidal action against POLCO
How it was run: as §2

[9] = tested on: Alopecurus myosuroides (ALOMY); assay: Pre-emergence herbicidal action against ALOMY; conditions: 320 g/ha; scored visually after about 3 weeks; 100% = plants have died
How it was run: as §1

[10] = tested on: Amaranthus retroflexus (AMARE); assay: Post-emergence herbicidal action against AMARE
How it was run: as §2

[11] = tested on: Alopecurus myosuroides (ALOMY); assay: Post-emergence herbicidal action against ALOMY; conditions: visual rating about 3 weeks after treatment vs untreated controls (100% = plants have died, 0% = like control plants)
How it was run: as §2

[12] = tested on: Verconica persica (VERPE); assay: Post-emergence herbicidal action against VERPE
How it was run: as §2

[13] = tested on: Echinochloa crus-galli (ECHCG); assay: Post-emergence herbicidal action against ECHCG
How it was run: as §2

[14] = tested on: Zea mays (ZEAMX); conditions: pre-emergence, 80 g/ha, crop plant compatibility, in comparison to untreated controls
How it was run: (§4)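 Scoring: visual, % of untreated control, about 3 weeks after a pre-emergence application to the soil surface. Application used WP or EC formulations diluted in water with 0.5% additive at 600 l/ha; dosage levels are marked by suffixes a, b and c.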

[15] = tested on: Oryza sativa (ORYSA); conditions: pre-emergence, 80 g/ha, crop plant compatibility, in comparison to untreated controls
How it was run: as §4

[16] = tested on: Setaria viridis (SETVI); assay: Pre-emergence herbicidal action against SETVI
How it was run: as §1

[17] = tested on: Matricaria inodora (MATIN); assay: Pre-emergence herbicidal action against MATIN
How it was run: as §1

[18] = tested on: Polygonum convolvulus (POLCO); assay: Pre-emergence herbicidal action against POLCO
How it was run: as §1

[19] = tested on: Viola tricolor (VIOTR); assay: Post-emergence herbicidal action against VIOTR
How it was run: as §2

[20] = tested on: Lolium rigidum (LOLRI); assay: Pre-emergence herbicidal action against LOLRI; conditions: dosage 320 g/ha
How it was run: as §1

[21] = tested on: Matricaria inodora (MATIN); assay: Post-emergence herbicidal action against MATIN; conditions: dosage 320 g/ha
How it was run: as §2

[22] = tested on: Avena fatua (AVEFA); assay: Post-emergence herbicidal action against AVEFA; conditions: visual rating about 3 weeks after treatment
How it was run: as §2

[23] = tested on: Avena fatua (AVEFA); assay: Pre-emergence herbicidal action against AVEFA; conditions: 320 g/ha, visual scoring after about 3 weeks vs untreated controls
How it was run: as §1

[24] = tested on: Verconica persica (VERPE); assay: Pre-emergence herbicidal action against VERPE
How it was run: as §1

[25] = tested on: Pharbitis purpurea (PHBPU); assay: Pre-emergence herbicidal action against PHBPU
How it was run: as §1

[26] = tested on: Lolium rigidum (LOLRI); assay: Post-emergence herbicidal action against LOLRI; conditions: dosage 320 g/ha
How it was run: as §2

[27] = tested on: Zea mays (ZEAMX); conditions: crop plant compatibility, 80 g/ha, effect vs untreated controls
How it was run: as §3

[28] = 80 g/ha, visual rating about 3 weeks after treatment vs untreated controls (100% = plants have died, 0% = like control plants)
[29] = 320 g/ha, visual rating about 3 weeks after treatment

`CCOC(=O)CSc1nn(-c2ccccn2)c(-c2cncc(F)c2)c1I` [Example I-152] was tested, and the “Pre-emergence action against VIOTR in %” value ([1]; 320 g/ha, Viola tricolor) was 90%, the “Pre-emergence action against VIOTR in %” value ([1]; dosage 80 g/ha) was 80% and the “Pre-emergence action against ECHCG in %” value ([2]; dosage 320 g/ha) was 90%. For the same molecule, the “Post-emergence action against PHBPU in %” value ([3]; dosage 80 g/ha) was 80%, the “Post-emergence action against PHBPU in %” value ([3]; dosage 320 g/ha) was 90% and the “Post-emergence action against SETVI in %” value ([4]; dosage 80 g/ha) was 80%. The “Post-emergence action against SETVI in %” value ([4]; dosage 320 g/ha) was 80%, the “Post-emergence action against ORYSA in %” value [5] was 0% and the “Post-emergence action against ABUTH in %” value ([6]; 320 g/ha) was 80%. For the same molecule, the “Pre-emergence action against AMARE in %” value ([7]; 320 g/ha) was 100%, the “Post-emergence action against POLCO in %” value ([8]; dosage 320 g/ha) was 80% and the “Pre-emergence action against ALOMY” value [9] was 80%. For the same molecule, the “Post-emergence action against AMARE in %” value [10, 28] was 80%, the “Post-emergence action against AMARE in %” value [10, 29] was 80% and the “Post-emergence action against ALOMY in %” value ([11]; 320 g/ha) was 80%. For the same molecule, the “Post-emergence action against VERPE in %” value ([12]; 320 g/ha, VERPE) was 80%, the “Post-emergence action against ECHCG in %” value ([13]; dosage 80 g/ha) was 80% and the “Post-emergence action against ECHCG in %” value ([13]; dosage 320 g/ha) was 80%. For the same molecule, the “Pre-emergence action against ZEAMX in %” value [14] was 10%, the “Pre-emergence action against ORYSA in %” value [15] was 20% and the “Pre-emergence action against SETVI in %” value ([16]; dosage 320 g/ha) was 90%. The “Pre-emergence action against MATIN in %” value ([17]; dosage 320 g/ha) was 90%.
With `CCOC(=O)COc1nn(-c2nc(F)ccc2F)c(-c2cncc(F)c2)c1Br` [Example I-193] the “Pre-emergence action against POLCO in %” value ([18]; dosage 80 g/ha) was 80%, the “Pre-emergence action against POLCO in %” value ([18]; dosage 320 g/ha) was 100% and the “Post-emergence action against VIOTR in %” value ([19]; 80 g/ha) was 80%. The “Post-emergence action against VIOTR in %” value ([19]; 320 g/ha) was 90%, the “Pre-emergence action against VIOTR in %” value ([1]; 320 g/ha, Viola tricolor) was 100% and the “Pre-emergence action against VIOTR in %” value ([1]; dosage 80 g/ha) was 100%. The “Pre-emergence action against ECHCG in %” value ([2]; dosage 80 g/ha) was 90%, the “Pre-emergence action against ECHCG in %” value ([2]; dosage 320 g/ha) was 100% and the “Post-emergence action against PHBPU in %” value ([3]; dosage 80 g/ha) was 90%. For the same molecule, the “Post-emergence action against PHBPU in %” value ([3]; dosage 320 g/ha) was 100%, the “Post-emergence action against SETVI in %” value ([4]; dosage 320 g/ha) was 90% and the “Post-emergence action against ORYSA in %” value [5] was 10%. The “Pre-emergence action against LOLRI in %” value [20] was 90%, the “Post-emergence action against MATIN in %” value [21] was 80% and the “Post-emergence action against ABUTH in %” value ([6]; 80 g/ha) was 80%. For the same molecule, the “Post-emergence action against ABUTH in %” value ([6]; 320 g/ha) was 80%, the “Pre-emergence action against AMARE in %” value ([7]; 80 g/ha) was 80% and the “Pre-emergence action against AMARE in %” value ([7]; 320 g/ha) was 100%. The “Post-emergence action against POLCO in %” value ([8]; dosage 80 g/ha) was 80%, the “Post-emergence action against POLCO in %” value ([8]; dosage 320 g/ha) was 80% and the “Post-emergence action against AVEFA in %” value ([22]; 80 g/ha) was 80%. The “Post-emergence action against AVEFA in %” value ([22]; 320 g/ha) was 90%, the “Pre-emergence action against AVEFA in %” value [23] was 90% and the “Pre-emergence action against ALOMY” value [9] was 90%. For the same molecule, the “Post-emergence action against AMARE in %” value [10, 28] was 80%, the “Post-emergence action against AMARE in %” value [10, 29] was 80% and the “Post-emergence action against ALOMY in %” value ([11]; 80 g/ha) was 90%. For the same molecule, the “Post-emergence action against ALOMY in %” value ([11]; 320 g/ha) was 100%, the “Post-emergence action against VERPE in %” value ([12]; 320 g/ha, VERPE) was 80% and the “Post-emergence action against VERPE in %” value ([12]; dosage 80 g/ha) was 80%. The “Post-emergence action against ECHCG in %” value ([13]; dosage 80 g/ha) was 90%, the “Post-emergence action against ECHCG in %” value ([13]; dosage 320 g/ha) was 90% and the “Pre-emergence action against ORYSA in %” value [15] was 20%. For the same molecule, the “Pre-emergence action against VERPE in %” value ([24]; dosage 80 g/ha) was 80%, the “Pre-emergence action against VERPE in %” value ([24]; dosage 320 g/ha) was 90% and the “Pre-emergence action against SETVI in %” value ([16]; dosage 80 g/ha) was 100%. For the same molecule, the “Pre-emergence action against SETVI in %” value ([16]; dosage 320 g/ha) was 100%, the “Pre-emergence action against PHBPU in %” value ([25]; dosage 80 g/ha) was 80% and the “Pre-emergence action against PHBPU in %” value ([25]; dosage 320 g/ha) was 90%. The “Pre-emergence action against MATIN in %” value ([17]; dosage 80 g/ha) was 90%, the “Pre-emergence action against MATIN in %” value ([17]; dosage 320 g/ha) was 90% and the “Post-emergence action against LOLRI in %” value [26] was 90%.
For `COCCOC(=O)COc1nn(-c2ncccc2C(F)(F)F)c(-c2ccc(F)nc2)c1Cl` [Example I-362], the “Pre-emergence action against POLCO in %” value ([18]; dosage 320 g/ha) was 80%, the “Post-emergence action against VIOTR in %” value ([19]; 80 g/ha) was 80% and the “Post-emergence action against VIOTR in %” value ([19]; 320 g/ha) was 80%. The “Pre-emergence action against VIOTR in %” value ([1]; 320 g/ha, Viola tricolor) was 100%, the “Post-emergence action against PHBPU in %” value ([3]; dosage 320 g/ha) was 80% and the “Post-emergence action against SETVI in %” value ([4]; dosage 320 g/ha) was 80%. The “Post-emergence action against ZEAMX in %” value [27] was 0%, the “Post-emergence action against ORYSA in %” value [5] was 10% and the “Pre-emergence action against LOLRI in %” value [20] was 100%. The “Pre-emergence action against AMARE in %” value ([7]; 320 g/ha) was 90%, the “Pre-emergence action against ALOMY” value [9] was 100% and the “Post-emergence action against ALOMY in %” value ([11]; 320 g/ha) was 90%. The “Post-emergence action against ECHCG in %” value ([13]; dosage 320 g/ha) was 80%, the “Pre-emergence action against ZEAMX in %” value [14] was 0% and the “Pre-emergence action against ORYSA in %” value [15] was 20%. For the same molecule, the “Pre-emergence action against SETVI in %” value ([16]; dosage 320 g/ha) was 80% and the “Post-emergence action against LOLRI in %” value [26] was 80%.
